Experimental data as given in patent publication US20110190199A1, “Combination Therapy for Tuberculosis” (priority 2008, published 2011).
Where “and” joins values, the source holds several entries; their conditions need not be identical. Equal entries are not always repeated. Marks after values point to notes of the source that are not given here.

Assays:
[1] = test system: M. tuberculosis H37Rv; experiment: Example 9: compound of formula I added to first and second line anti-tuberculosis drugs (survival, lung CFU after 4 weeks); assay type: in vivo, mice; details: for Mean lung log10 CFU count (±) S.D. after 4 weeks of treatment with: Regimen alone / Mean lung log10 CFU count (±) S.D. after 4 weeks of treatment with: Regimen + U 25 mg/kg / Mean lung log10 CFU count (±) S.D. after 4 weeks of treatment with: Regimen + U 100 mg/kg: D0 8.36 ± 0.10; for Mean lung log10 CFU count (±) S.D. after 4 weeks of treatment with: Regimen alone: H 10, R 10, Eb 100, M 100 mg, Et 50, A 150 sc, C 20 mg/kg; for Mean lung log10 CFU count (±) S.D. after 4 weeks of treatment with: Regimen + U 25 mg/kg: labelled drug PLUS U 25 mg/kg; for Mean lung log10 CFU count (±) S.D. after 4 weeks of treatment with: Regimen + U 100 mg/kg: labelled drug PLUS U 100 mg/kg, lower limit of detection 3.40; for Time to 50% mortality: no treatment 21 days
[2] = test system: Mycobacterium tuberculosis H37Rv; experiment: Example 6: in vivo activity of the combination (lung CFU after 4 and 8 weeks); design: species or system mice; details: for Lung log10 CFU counts (±SD) after treatment with the indicated regimen plus the compound of formula (I) 100 mg/kg/day, Day 28 / Lung log10 CFU counts (±SD) after treatment with the indicated regimen plus the compound of formula (I) 100 mg/kg/day, Day 56: labelled regimen PLUS compound of formula (I) 100 mg/kg/day, INH 25, RIF 10, PZA 150, MXF 100 mg/kg; for Lung log10 CFU counts (±SD) after treatment with the indicated regimen plus the compound of formula (I) 100 mg/kg/day, Day 28 / Lung log10 CFU counts (±SD) after treatment with the indicated regimen plus the compound of formula (I) 100 mg/kg/day, Day 56 / Lung log10 CFU counts (±SD) after treatment with the indicated regimen, Day 56 / Lung log10 CFU counts (±SD) after treatment with the indicated regimen, Day 28: Day 0 7.37 ± 0.12; for reduction in lung CFU counts from baseline over the first 28 days: monotherapy, compound of formula (I) 100, INH 25, RIF 10 mg/kg; for Lung log10 CFU counts (±SD) after treatment with the indicated regimen, Day 56 / Lung log10 CFU counts (±SD) after treatment with the indicated regimen, Day 28: regimen as labelled, INH 25, RIF 10, PZA 150, MXF 100, compound of formula (I) 100 mg/kg; for Lung log10 CFU counts (±SD) after treatment with the indicated regimen, Day 28: 100 mg/kg
[3] = test system: Mycobacterium tuberculosis H37Rv; assay type: in vivo, mice; details: 25 mg/kg
[4] = test system: Mycobacterium tuberculosis H37Rv; experiment: Example 8B: eight week dose ranging study (second phase after 4 weeks RHZU25); assay type: in vivo, mice; design: Lung CFU / CFU-U only: unit not given here; details: 8 weeks: 4 weeks RHZU25 (4.19 ± 0.26) then 4 weeks of the labelled treatment; R 10, H 25 mg/kg; untreated 5.49 ± 0.23
Method: Eighty of the mice from Group 4 (in Example 8A) that had been receiving 25 mg/kg of the compound of formula I (U) along with rifampin(R), isoniazid(H), and pyrazinamide(Z) were evaluated in the second phase of the study. They were assigned to one of the groups described below in Table 6 and the study was continued for an additional 4 weeks (i.e. 8 week results).
As described above, 5 animals served as the control and no further drugs were given. Five were given the combination of rifampin(R) and isoniazid (H), five given isoniazid (H) or rifampin(R) alone. […] Six of these groups were also dosed with rifampin (R). The rifampin and isoniazid was dosed in the same manner and in the same amount as in Example 8A.
At the conclusion of the eight (8) week experiment, all of the animals were sacrificed and CFU lung counts were obtained.

[5] = test system: Mycobacterium tuberculosis H37Rv; experiment: Example 8C: additional dose ranging study (4 and 8 weeks); assay type: in vivo, mice; details: lung; 4 weeks RHZU100 then 4 weeks of the labelled control regimen without U; untreated 4.91 ± 0.17
Method: The protocol described above in Example 8A and 8B was carried out on an alternative occasion. The only substantive changes were the number of animals per group and the initial incubation period.
Testing continued for an additional 4 weeks with 60 of the mice from Test Group 2 immediately above. The mice either received U alone, at varying doses, or the combination of U and R. The following results were obtained.

Row | Molecule | Mean lung log10 CFU count (±) S.D. after 4 weeks of treatment with: Regimen alone [1] | Mean lung log10 CFU count (±) S.D. after 4 weeks of treatment with: Regimen + U 25 mg/kg [1] | Mean lung log10 CFU count (±) S.D. after 4 weeks of treatment with: Regimen + U 100 mg/kg [1] | Time to 50% mortality [1] | further results
1 | NCC[C@H](O)C(=O)N[C@@H]1C[C@H](N)[C@@H](O[C@H]2O[C@H](CN)[C@@H](O)[C@H](O)[C@H]2O)[C@H](O)[C@H]1O[C@H]1O[C@H](CO)[C@@H](O)[C@H](N)[C@H]1O [A, amikacin] | 7.24 ± 0.14 log10 CFU | 6.78 ± 0.16 log10 CFU | 5.18 ± 0.17 log10 CFU | – | –
2 | CC(C)/N=c1\cc2n(-c3ccc(Cl)cc3)c3ccccc3nc-2cc1Nc1ccc(Cl)cc1 [C, clofazimine] | 5.92 ± 0.24 log10 CFU | 6.25 ± 0.20 log10 CFU | 4.91 ± 0.14 log10 CFU | – | –
3 | N[C@@H]1CON=C1O [Cs, cycloserine] | – | 7.19 ± 0.21 log10 CFU | 5.66 ± 0.11 log10 CFU | 22 days | –
4 | CC[C@@H](CO)NCCN[C@@H](CC)CO [Eb, ethambutol] | 7.41 ± 0.57 log10 CFU | 6.86 ± 0.16 log10 CFU | 5.50 ± 0.13 log10 CFU | 30 days | –
5 | CCc1cc(C(N)=S)ccn1 [Et, ethionamide] | 7.19 ± 0.04 log10 CFU | 7.18 ± 0.18 log10 CFU | 5.46 ± 0.15 log10 CFU | – | –
6 | NNC(=O)c1ccncc1 [INH, isoniazid] | 7.01 ± 0.14 log10 CFU | 6.22 ± 0.06 log10 CFU | 5.79 ± 0.33 log10 CFU | – | Lung log10 CFU counts (±SD) after treatment with the indicated regimen plus the compound of formula (I) 100 mg/kg/day, Day 28 [2]: 4.33 ± 0.29 log10 CFU; Lung log10 CFU counts (±SD) after treatment with the indicated regimen plus the compound of formula (I) 100 mg/kg/day, Day 56 [2]: 2.87 ± 0.23 log10 CFU; reduction in lung CFU counts from baseline over the first 28 days [2]: 1.58 log10; Lung log10 CFU counts (±SD) after treatment with the indicated regimen, Day 56 [2]: 4.53 ± 0.24 log10 CFU; Lung log10 CFU counts (±SD) after treatment with the indicated regimen, Day 28 [2]: 5.79 log10 CFU and 5.79 ± 0.14 log10 CFU; log kill (reduction in mean lung CFU count compared to the baseline value) ([3]; 28 days): 1.87 log10; mean spleen weight ([3]; after 28 days of treatment, pre-treatment 105±11 mg, untreated 237±16 mg): 100 ± 1 mg; Lung CFU [4]: 4.46 ± 0.37
7 | COc1c(N2C[C@@H]3CCCN[C@@H]3C2)c(F)cc2c(=O)c(C(=O)O)cn(C3CC3)c12 [M, moxifloxacin] | 6.49 ± 0.12 log10 CFU | 7.08 ± 0.10 log10 CFU | 5.33 ± 0.30 log10 CFU | – | –
8 | Nc1ccc(C(=O)O)c(O)c1 [Ps, para-aminosalicyclic acid] | – | 6.87 ± 0.21 log10 CFU | 5.39 ± 0.32 log10 CFU | 31 days | –
9 | CO[C@H]1/C=C/O[C@@]2(C)Oc3c(C)c(O)c4c(O)c(c(/C=N/N5CCN(C)CC5)c(O)c4c3C2=O)NC(=O)/C(C)=C\C=C\[C@H](C)[C@H](O)[C@@H](C)[C@@H](O)[C@@H](C)[C@H](OC(C)=O)[C@@H]1C [RIF, rifampin] | 6.23 ± 0.11 log10 CFU | 5.91 ± 0.21 log10 CFU | 5.02 ± 0.10 log10 CFU | – | Lung log10 CFU counts (±SD) after treatment with the indicated regimen plus the compound of formula (I) 100 mg/kg/day, Day 28 [2]: 3.73 ± 0.19 log10 CFU; Lung log10 CFU counts (±SD) after treatment with the indicated regimen plus the compound of formula (I) 100 mg/kg/day, Day 56 [2]: 1.29 ± 0.22 log10 CFU; reduction in lung CFU counts from baseline over the first 28 days [2]: 1.63 log10; Lung log10 CFU counts (±SD) after treatment with the indicated regimen, Day 56 [2]: 4.65 ± 0.24 log10 CFU; Lung log10 CFU counts (±SD) after treatment with the indicated regimen, Day 28 [2]: 5.74 log10 CFU and 5.74 ± 0.17 log10 CFU; CFU Count 8 weeks [5]: 4.16 ± 0.65; Lung CFU [4]: 4.18 ± 0.55
10 | NC(=O)c1cnccn1 [Z, pyrazinamide] | – | 4.73 ± 0.38 log10 CFU | ≦3.59*** log10 CFU | 21 days | –
11 | capreomycin | – | 6.81 ± 0.13 log10 CFU | 5.35 ± 0.17 log10 CFU | 22 days | –
